Measured values from article PMC9646836, “Tetrahydroquinolinone derivatives exert antiproliferative effect on lung cancer cells through apoptosis induction” (Scientific Reports, 2022).

What was measured:
[1] = tested on: HCT-116; assay: MTT cell viability assay, HCT-116; format: cell-based, human; settings: mean ± SD, n = 3
Experimental: (§1) All new tetrahydroquinoline derivatives were assessed for cytotoxicity on a broad panel of cancer and normal cell lines, using the MTT assay. The half-inhibitory growth inhibitory concentration (IC50) values of each compound were calculated after 72 h of treatment and presented in Table 1. […] In this assay, the IC50 value of 5-FU and ETP was recorded as a positive control.
(§2) Non-small cell lung cancer cells A549 (CCL-185), breast cancer cells MCF-7 ([…]), hepatocarcinoma cells HepG2 ([…]), normal kidney cells HEK293 (CRL-1573), and osteosarcoma cells U-2 OS (HTB-96) were obtained from the American Type Culture Collection. HCT-116 cell line was kindly provided by prof. Bert Vogelstein (Johns Hopkins University, Howard Hughes Medical Institute, USA). The obtained A549 and MCF-7 cells were cultured in RPMI-1640 medium, HepG2 cells in Minimum Essential Medium Eagle medium, HEK-293 cells in Dulbecco’s Modified Eagle’s medium, and U-2 OS and HCT-116 cells in McCoy’s […] medium. All culture media were supplemented with 10% fetal bovine serum, 2 mM L-glutamine, and antibiotics (penicillin 62.6 µg/ml and streptomycin 40 µg/ml; Sigma-Aldrich). Both cancer and normal cells were cultured at 37 °C under a humidified atmosphere with 5% or 10% CO2 and routinely screened for Mycoplasma contamination. All materials and reagents were obtained from Corning unless stated otherwise.
(§3) The cytotoxic effect of the synthesized compounds was assessed by the MTT (4,5-dimethylthiazol-2-yl-2,5-diphenyltetrazoliumbromide; Sigma-Aldrich) assay. Briefly, the cells were seeded into 96-well transparent flat-bottom plates and allowed to attach overnight. On the next day, the cells were treated with compounds in the range of 0–50 µM for 72 h. Dimethyl sulfoxide (DMSO; Merck) and 5-fluorouracil (5-FU; Sigma-Aldrich) were used as a reference. After exposure to the compounds, 20 μl of the MTT solution at a concentration of 4 mg/ml was added to each well, and the plates were incubated again for 2–3 h at 37 °C. Next, the media in the wells was replaced with 100 μl DMSO to solubilize the formazan crystals. The absorbance was measured at 540 nm using an ASYS UVM340 microplate reader (Biochrom Ltd.). The IC50 value of the compounds was calculated using GraphPad Prism 9 software, based on the curves plotted with survival as a function of dose, averaged from three independent experiments.

[2] = tested on: A549; assay: MTT cell viability assay, A549; format: cell-based, human; settings: Homo sapiens, A549, 72 h, mean ± SD, n = 3
Experimental: as §1, §2, §3

[3] = tested on: MCF-7; assay: MTT cell viability assay, MCF-7; format: cell-based, human; settings: Homo sapiens, MCF7, 72 h, mean ± SD, n = 3
Experimental: as §1, §2, §3

[4] = tested on: Hela; assay: MTT cell viability assay, Hela; format: cell-based; settings: Homo sapiens, HeLa, 72 h, mean ± SD, n = 3
Experimental: as §1, §3

[5] = tested on: A549 cells; assay: Apoptosis assay (Annexin V/7-AAD, flow cytometry); format: cell-based, human; settings: A549, IC50 concentration
Experimental: To further explain the mechanism by which 4a induced cell death in cancer cells, a flow cytometric analysis was performed by dual-staining the cells with 7-aminoactinomycin D (7-AAD) and Annexin V-fluorescein isothiocyanate (FITC). Annexin-V is a Ca^2+-dependent protein with potent affinity to phosphatidylserine. During early apoptosis, cells lose plasma membrane asymmetry through, for example, the externalization of phosphatidylserine. Once exposed to the outside of the cell surface, phosphatidylserine can be recognized by Annexin-V, and quantified. On the other hand, 7-AAD is a dye that cannot penetrate the intact cell membrane, and allows differentiating between necrotic and late apoptotic cells from living and early apoptotic cells. […] Treatment with the tested compound for 24 h caused 3.9-fold augmentation in apoptosis [early: 7-AAD (–), Annexin V-FITC (+); late: 7-AAD (+), Annexin V-FITC (+)] in comparison to the vehicle.
(§4) Cells were seeded in a 5-cm^2 dish at a density of 15 × 10^5 cells per dish and allowed to attach overnight at 37 °C. Then, compounds at IC50 concentrations were added to the medium. After 6, 24, and 48 h, the cells were harvested and washed with PBS. Subsequently, the cells were resuspended in the binding buffer and stained with Annexin V Alexa Fluor™ 488 conjugate (#A13201; Thermo Fisher Scientific) for the apoptosis assay and with CellEvent™ Caspase-3/7 Green Flow Cytometry Assay Kit (#C10427; Thermo Fisher Scientific) for the activation of caspase-3/7, as per the manufacturer’s instructions. After incubation, the samples were immediately analyzed using a Guava EasyCyte 8 cell sorter (Merck Millipore) and FlowJo software v10. Each experiment was repeated three times.

[6] = tested on: caspase-3/7 in A549 cells; assay: Caspase-3/7 activation (flow cytometry); format: cell-based, human; settings: A549, IC50 concentration
Experimental: Apoptosis induction via both intrinsic and extrinsic pathways is mediated by caspase cascade events. Therefore, in this study, the ability of 4a to activate two effector caspases (caspase-3 and caspase-7) was evaluated by flow cytometry.
as §4

[7] = tested on: apoptosis-related proteins in A549 cells; assay: Western blotting of apoptosis-related proteins; format: cell-based, human
Experimental: The expression of apoptosis-related proteins was determined by Western blotting. Briefly, A549 cells were treated with compound 4a at its IC50 concentration for 6, 24, and 48 h. The cells treated with 1% v/v DMSO served as the negative control. The total protein content was extracted from the cells using the NP-40 cell lysis buffer (10 mM Tris–HCl pH 7.4, 10 mM NaCl, 3 mM MgCl2, 0.5% Nonidet P-40, cOmplete Mini EDTA-free Protease Inhibitor Cocktail). Then, 30 µg of protein extract was separated by 10% sodium dodecyl sulfate–polyacrylamide gel electrophoresis, and the separated proteins were transferred to microporous polyvinylidene difluoride membranes (Bio-Rad). The membranes were blocked with 5% bovine serum albumin in tris-buffered saline-Tween 20 (TBST) buffer (0.2 M Tris-base, 0.137 M NaCl, 0.1% Tween 20) for 1 h at RT, and incubated overnight with primary antibodies at 4 °C. The blots were washed three times with TBST and incubated with appropriate peroxidase-conjugated secondary antibodies for 1 h at RT. Then, the blots were washed in TBST for 30 min and developed using an enhanced chemiluminescence detection reagent kit (Thermo Fisher Scientific) and a ChemiDoc XRS + Imaging System (Bio-Rad). All materials and reagents were obtained from Sigma-Aldrich unless stated otherwise.

[8] = A549, IC50 concentration, 6, 24, 48 h

O=c1[nH]c2c(c(-c3ccccc3)c1Cc1cccc3ccccc13)CCCC2 [Compound 4a, 3-(1-naphthylmethyl)-4-phenyl-5,6,7,8-tetrahydro-1H-quinolin-2-one]
IC50 ([1]; 72 h): 12.2 ± 1.61 µM
IC50 ([1]; Homo sapiens, HCT-116, 72 h): ~13 µM
IC50 [2]: 11.3 ± 0.67 µM
IC50 [3]: > 50 µM
IC50 [4]: > 50 µM
increase in the fraction of early-apoptotic cells [7-AAD (–), Annexin V-FITC (+)] ([5]; 6 h, vs DMSO control): 14.03 ± 1.74%
augmentation in apoptosis (early + late) ([5]; 24 h, vs vehicle): 3.9 fold
percentage of apoptotic cells ([5]; 48 h): significant increase
activation of caspase-3/7 ([6]; 24 and 48 h, vs vehicle): 3.9 ± 0.33 fold
increase in the activity of caspase-3/7 ([6]; 6 h): 2.32 ± 0.05 fold
PARP-1 band [7, 8]: proteolytic cleavage
caspase-3, caspase-8, and caspase-9 [7, 8]: cleaved into their corresponding catalytically active forms
expression of BAD protein [7, 8]: higher than that in the control group
expression of BAX protein [7, 8]: higher than that in the control group
expression of BCL-2 protein [7, 8]: significantly decreased
expression of BID [7, 8]: slightly activated
expression of AIF ([7]; A549, IC50 concentration, vs DMSO-treated control): remained unchanged
